Like-named read-outs stand apart in the source and are kept apart here.
Legend:
GSD Ia puppies = assay: Clinical course (hypoglycemia, survival) of GSD Ia puppies treated as neonates; format: in vivo, dog
From the text: In this example, puppies with GSD Ia were initially treated with AAV-CRISPR/Cas9 and AAV-cG6PC (Donor) to perform neonatal genome editing at 2 days of age, followed by gene replacement therapy with one or more alternative serotypes of AAV to control symptoms of GSD Ia at the indicated ages for the individual puppies (Puppy 1 shown in green, Puppy 2 in purple in FIG. 4A, see Table 3 below for details). The control group of dogs were those described in Example 2 that received 3 doses of gene replacement therapy during infancy.
As shown in FIG. 4A and described in Table 3 below, two puppies with GSD Ia were treated with genome editing as neonates at a 5:1 ratio of AAV7-cG6PC and AAV7-SaCas9. One puppy was dosed at 4×10^13 vp/kg AAV7-cG6PC and 8×10^12 vp/kg AAV7-SaCas9. The other was dosed with 5×10^13 vp/kg AAV7-cG6PC and […] AAV7-SaCas9. […] Specifically, one puppy (the first described above) received two doses of gene replacement therapy (e.g., AAV10 G6Pase at 3×10^12 vp/kg and AAV8 G6Pase at 1×10^13 vp/kg) at ages 2 and 3 months, respectively. The second puppy received only one gene replacement therapy at 2 months of age (e.g., AAV9 G6Pase at 3×10^13 vp/kg). Table 3 below details the treatment protocols used for both puppies.

[1] = Procedure: Vector genomes in liver were quantified with qPCR. Briefly, AAV vector genome copy number was measured by quantitative real-time PCR with liver genomic DNA and normalized to β-actin. Plasmid DNA corresponding to 0.01 to 100 copies of canine G6Pase gene (in 500 ng genomic DNA) was used in a standard curve. qPCR was performed on a Lightcycler 480 (Roche Diagnostics, Basel, Switzerland) using SYBR Green mix (Thermo-Fisher Scientific, Waltham, MA) and the following primers: cG6Pc Fwd (5′-[…]-3′, SEQ ID NO: 65), cG6Pc Rev (5′-[…]-3′, SEQ ID NO: 66), hG6PC Fwd (5′-[…]-3′, SEQ ID NO: 67), hG6PC Rev (5′-[…]-3′, SEQ ID NO: 68), saCas9 Fwd (5′-[…]-3′, SEQ ID NO: 69), saCas9 Rev (5′-[…]-3′, SEQ ID NO: 70), cB-actin Fwd (5′-[…]-3′, SEQ ID NO: 71), cB-actin Rev (5′-[…]-3′, SEQ ID NO: 72). Cycling conditions were 95° C. for 5 min, followed by 45 cycles of 95° C. for 10 s, 60° C. for 10 s, and 72° C. for 20 s followed by acquisition.
G6Pase activity in liver = assay: Liver G6Pase activity in GSD Ia dogs; format: in vivo, dog; conditions: 32 months of age, before CRISPR (BC), after gene replacement as neonates
Procedure: G6Pase activity and glycogen levels were analyzed at 4- and 16-months following genome editing at 34 months of age as described in (Koeberl, D. et al., (2006). Early, sustained efficacy of adeno-associated virus vector-mediated gene therapy in glycogen storage disease type Ia. Gene Therapy. 13, 1281-1289). Both assays reflected corrections of the biochemical abnormalities in comparison with untreated affected controls. Normal activity was measured in a group of three unaffected dogs (two carriers and one wildtype; both genotypes are accepted as normal controls in published studies of animals with GSD Ia). Briefly, liver biopsy tissues, obtained as described in Example 2, were flash-frozen and stored at −70° C. Glycogen content was measured by complete digestion of polysaccharide using amyloglucosidase (Sigma Chemical Co., St. Louis, MO). The structure of the polysaccharide was inferred by using phosphorylase free of the debranching enzyme to measure the yield of glucose-1-phosphate. Specific G6Pase activity was measured by using glucose-6-phosphate as substrate after subtraction of nonspecific phosphatase activity as estimated by β-glycerophosphate.

canine G6PC locus = assay: Nested integration PCR in transfected GSD Ia dog fibroblasts; format: cell-based
Procedure: Next, a nested PCR reaction was performed to detect levels of DNA integration in genomic DNA in the transfected fibroblasts. Fibroblast DNA were extracted using the Wizard Genomic DNA Purification Kit (Promega, Madison, WI, USA). The canine G6Pc locus was amplified by Q5 Taq Polymerase (NEB, Ipswich, MA, USA) with the following reagents: 5 μL of Q5 buffer, 5 μL of high GC enhancer solution, 2 μL of 2.5 mM dNTP mix, 1.25 μL of 10 uM primer P1 (5′-[…]-3′, SEQ ID NO: 59)), 1.25 μL of 10 uM primer P4 (5′-[…]-3′, SEQ ID NO: 62)), 9.25 μL of water, 1 μL (100 ng) of genomic DNA, and 0.25 μL of Q5 Taq Polymerase. Cycling conditions were 35 cycles of denaturation at 95° C. for 30 s, annealing at 59° C. for 30 s, extension at 72° C. for 2 min, followed by incubation at 4° C. One microliter of first-round PCR products was used in a nested reaction with the same conditions except primers were P2 (5′-[…]-3′ (SEQ ID NO: 60)) and P3 (5′-[…]-3′ (SEQ ID NO: 61)) and cycling was 30 cycles. Control primers were P5 (5′-[…]-3′ (SEQ ID NO: 63)) and P6 (5′-[…]-3′ (SEQ ID NO: 64)).
Sequencing of the integration PCR product (total sequence: SEQ ID NO: 52) confirmed the donor sequence was inserted in the dog G6PC gene at the exon 1/intron 1 boundary. […]

[2] = dogs treated as adults, months 4 and 16 after gene editing vectors
[3] = puppies treated as neonates, Months 4 and 16

Substance: AAV-G6Pase: gene replacement AAV vector delivering human G6Pase cDNA under a human G6Pase minimal promoter, episomal expression (SEQ ID NO: 49; Luo et al. 2011) [reference compound]
- effect of gene replacement vector on recurrent hypoglycemia (GSD Ia puppies; puppies, given at 2 (and 3) months): reversed their symptoms
- vector copy number in liver ([1]; dogs treated as adults, 4 months following gene editing (4M)): < 0.1 vg/nucleus
- vector genomes in liver (qPCR) [1, 2]: detected
- vector genomes in liver (qPCR) [1, 3]: detected
- G6Pase activity in liver (G6Pase activity in liver): 29±8 % of normal

Substance: AAV-cG6PC: AAV donor vector: canine G6Pc cDNA flanked by canine G6PC 5' and 3' homology arms (SEQ ID NO: 43)
- hypoglycemia and survival in the first two months of life (GSD Ia puppies; GSD Ia puppies treated at 2 days of age): efficacious in preventing hypoglycemia and improving survival
- transgene integration (integration PCR) (canine G6PC locus): no detectable integration events
- vector copy number in liver, compared with AAV-G6Pase ([1]; dogs treated as adults, 4 months following gene editing): Higher copy numbers
- vector genomes in liver (qPCR) [1, 2]: detected
- vector genomes in liver (qPCR) [1, 3]: detected

— patent US20250376698A1, “COMPOSITIONS AND METHODS FOR PROMOTING LIVER REGENERATION BY GENE EDITING IN METABOLIC LIVER DISEASE” (priority 2022, published 2025)
